Among the data in paper PMC4370873, “The RNA Template Channel of the RNA-Dependent RNA Polymerase as a Target for Development of Antiviral Therapy of Multiple Genera within a Virus Family” (PLoS Pathogens, 2015) are Ki values, retold here.

The experiment has as its target T1, EMCV 3Dpol (Mengo virus, UniProt P12296).
T1 construct: mature 3Dpol cut from polyprotein (1834 to 2293, 460 residues); cleavable His6-thioredoxin tag (pETG20A) removed; expressed in E. coli Rosetta (DE3) pLysS
In words: [3H]UTP incorporation on poly(rA)/dT15, filter binding. The format is biochemical.

The Ki is the dissociation constant of the complex between target and ligand, obtained from inhibition or displacement. Lower therefore signals a stronger hold on the target.

T1 sequence (P12296 1834-2293): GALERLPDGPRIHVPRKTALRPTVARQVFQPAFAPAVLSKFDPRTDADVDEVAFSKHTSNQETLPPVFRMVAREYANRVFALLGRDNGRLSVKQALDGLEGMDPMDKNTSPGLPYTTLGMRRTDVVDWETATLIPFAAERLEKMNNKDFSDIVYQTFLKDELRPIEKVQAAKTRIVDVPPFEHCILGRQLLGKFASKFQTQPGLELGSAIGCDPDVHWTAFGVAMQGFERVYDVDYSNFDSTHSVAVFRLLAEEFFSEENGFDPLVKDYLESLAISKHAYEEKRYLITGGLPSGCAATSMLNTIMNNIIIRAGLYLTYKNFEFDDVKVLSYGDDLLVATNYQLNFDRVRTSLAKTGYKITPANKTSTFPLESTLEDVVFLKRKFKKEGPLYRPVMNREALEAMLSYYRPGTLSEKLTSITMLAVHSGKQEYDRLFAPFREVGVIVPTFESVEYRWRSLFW

`N#Cc1cc([N+](=O)[O-])ccc1Oc1ccc(Cl)cc1Oc1ccc([N+](=O)[O-])cc1C#N` [GPC-N114, 2,2'-[(4-chloro-1,2-phenylene)bis(oxy)]bis(5-nitro-benzonitrile)] displayed a Ki of 1300 nM.
